The values below come from ChEMBL document CHEMBL1147622, “Design and synthesis of indolo[2,3-a]quinolizin-7-one inhibitors of the ZipA-FtsZ interaction” (2004).

Assay [1] in a line: Antibacterial activity against Gram-positive, Gram-negative bacteria and Escherichia coli. In kind it is functional.
Assay [2] relates to Escherichia coli. The experiment in a line: Inhibition of ZipA FtsZ binding at 1 mM using an optical biosensor system.

Usually MIC stands for the smallest concentration in the dilution series that meets the test's criterion for growth inhibition. By inhibition is commonly meant how much of the control response was suppressed. Lower therefore signals a response near the control. Compound `Cc1ccc(CNC(=O)CCCn2c3c(c4ccccc42)C(=O)CN2CCCCC32)o1` (stereo not given) returned an MIC in assay [1] not below 200 µM. The same compound returned an inhibition in assay [2] of 23%.

`Cc1nnsc1S(=O)(=O)NCCCn1c2c(c3ccccc31)C(=O)CN1CCCCC21` (stereo not given): the MIC in assay [1] is not below 200 µM. Moreover, in assay [2], the inhibition was found to be 30%.

As to `O=C1CN2CCCCC2c2c1c1ccccc1n2CCCN1CC(Br)C1=O` (stereo not given), the minimum inhibitory concentration (MIC) in assay [1] is not below 200 µM. The inhibition in assay [2] came to 38%.

In assay [1], `O=C(Cc1ccc(F)cc1)NCCCn1c2c(c3ccccc31)C(=O)CN1CCCCC21` (stereo not given) came in with an MIC not below 200 µM. In assay [2], this compound gave an inhibition of 33%.

In turn, `Cc1ccc(CNC(=O)CCn2c3c(c4ccccc42)C(=O)CN2CCCCC32)o1` (stereo not given) came in with an MIC in assay [1] not below 200 µM. The compound further gave an inhibition in assay [2] of 32%.

In turn, `O=C(NCCCn1c2c(c3ccccc31)C(=O)CN1CCCCC21)c1ccco1` (stereo not given) yielded an MIC in assay [1] not below 200 µM. The compound also displayed an inhibition in assay [2] of 38%.

With `O=C1CN2CCCCC2c2c1c1ccccc1n2CCCNS(=O)(=O)c1cc(Cl)sc1Cl` (stereo not given), the MIC in assay [1] was not below 200 µM. In addition, the inhibition in assay [2] turned out to be 12%.

The compound `CS(=O)(=O)NCCCn1c2c(c3ccccc31)C(=O)CN1CCCCC21` (stereo not given) showed an MIC in assay [1] not below 200 µM. The compound further yielded an inhibition in assay [2] of 41%.

In the case of `O=C1CN2CCCCC2c2[nH]c3ccccc3c21` (stereo not given), the MIC in assay [1] was not below 200 µM. Moreover, the inhibition in assay [2] was 39%.

Turning to `CC(C)S(=O)(=O)NCCCn1c2c(c3ccccc31)C(=O)CN1CCCCC21` (stereo not given), the minimal inhibitory concentration (MIC) in assay [1] is not below 200 µM. This compound also had an inhibition in assay [2] of 46%.

As for `O=C(NCCCn1c2c(c3ccccc31)C(=O)CN1CCCCC21)c1ccc(Cl)c(Cl)c1` (stereo not given), the minimal inhibitory concentration (MIC) in assay [1] was not below 200 µM. This compound also showed an inhibition in assay [2] of 8%.

Consider `CCCCS(=O)(=O)NCCCn1c2c(c3ccccc31)C(=O)CN1CCCCC21` (stereo not given), for which, in assay [1], the minimal inhibitory concentration (MIC) was not below 200 µM. The compound also gave an inhibition in assay [2] of 25%.

`O=C(CCCn1c2c(c3ccccc31)C(=O)CN1CCCCC21)NCC(F)(F)F` (stereo not given): the MIC in assay [1] was not below 200 µM. Also, the inhibition in assay [2] stood at 21%.

In assay [1], `O=C(Cn1c2c(c3ccccc31)C(=O)CN1CCCCC21)NC1CCCC1` (stereo not given) returned an MIC not below 200 µM. This compound also registered an inhibition in assay [2] of 31%.

Turning to `O=C1CN2CCCCC2c2c1c1ccccc1n2CCCNS(=O)(=O)c1ccc(Cl)s1` (stereo not given), the minimum inhibitory concentration (MIC) in assay [1] was not below 200 µM. The compound further returned an inhibition in assay [2] of 11%.

In the case of `O=C1CN2CCCCC2c2c1c1ccccc1n2CCCNS(=O)(=O)c1cccs1` (stereo not given), the minimum inhibitory concentration (MIC) in assay [1] is not below 200 µM. This compound came in with an inhibition in assay [2] of 25%.

`NCCCn1c2c(c3ccccc31)C(=O)CN1CCCCC21` (stereo not given): the minimum inhibitory concentration (MIC) in assay [1] is not below 200 µM. The same compound showed an inhibition in assay [2] of 47%.

`N#CCCNC(=O)CCn1c2c(c3ccccc31)C(=O)CN1CCCCC21` (stereo not given) showed a minimal inhibitory concentration (MIC) in assay [1] not below 200 µM. The same compound came in with an inhibition in assay [2] of 22%.

On to `N#CCCNC(=O)CCCn1c2c(c3ccccc31)C(=O)CN1CCCCC21` (stereo not given), for which, in assay [1], the MIC was not below 200 µM. The same compound yielded an inhibition in assay [2] of 39%.

For `O=C(CCCn1c2c(c3ccccc31)C(=O)CN1CCCCC21)NC1CCCC1` (stereo not given), in assay [1], the MIC was not below 200 µM. In addition, the inhibition in assay [2] was found to be 24%.
